Values quoted from earlier work as cited in patent US12410474B2, “Methods, kits, and devices for diagnosing, prognosing, and treating psychiatric disorders in a patient” (Northwestern University, priority 2014, dated 2025).

What was measured:
HTR2C = molecular target: T1, HTR2C (Homo sapiens, UniProt P28335)
T1 sequence (P28335 33-458): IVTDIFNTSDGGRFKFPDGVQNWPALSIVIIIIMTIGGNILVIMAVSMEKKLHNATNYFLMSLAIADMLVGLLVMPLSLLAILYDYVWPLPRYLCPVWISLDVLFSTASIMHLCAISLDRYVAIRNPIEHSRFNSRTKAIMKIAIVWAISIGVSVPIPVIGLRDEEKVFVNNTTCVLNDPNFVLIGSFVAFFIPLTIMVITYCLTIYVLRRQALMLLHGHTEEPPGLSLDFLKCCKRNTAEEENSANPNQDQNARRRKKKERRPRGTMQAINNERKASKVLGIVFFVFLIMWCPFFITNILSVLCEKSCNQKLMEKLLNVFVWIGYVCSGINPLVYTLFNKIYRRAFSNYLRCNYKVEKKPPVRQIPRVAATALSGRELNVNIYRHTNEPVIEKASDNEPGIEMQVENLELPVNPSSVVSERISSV

[1] = system: HTR2C Ser23 and Cys23 isoreceptors; details: after prolonged pre-exposure to serotonin
HTR2A = HTR2A (Homo sapiens, UniProt P28223)
HTR2A, sequence (P28223 whole entry): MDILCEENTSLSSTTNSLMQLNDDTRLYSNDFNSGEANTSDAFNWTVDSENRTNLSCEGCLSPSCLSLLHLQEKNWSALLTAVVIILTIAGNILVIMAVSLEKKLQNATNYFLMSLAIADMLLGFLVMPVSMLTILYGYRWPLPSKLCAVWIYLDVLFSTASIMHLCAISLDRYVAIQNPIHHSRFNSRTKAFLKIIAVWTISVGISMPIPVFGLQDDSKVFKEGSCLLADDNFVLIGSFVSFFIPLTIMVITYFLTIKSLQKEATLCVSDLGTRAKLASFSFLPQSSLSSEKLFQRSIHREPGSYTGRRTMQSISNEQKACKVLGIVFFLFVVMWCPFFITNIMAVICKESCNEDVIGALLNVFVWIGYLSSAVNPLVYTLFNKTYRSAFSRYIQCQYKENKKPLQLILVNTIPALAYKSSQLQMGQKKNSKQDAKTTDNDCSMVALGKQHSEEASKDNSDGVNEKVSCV

| SMILES | functional activity at HTR2C (HTR2C) | further results |
| --- | --- | --- |
| Cn1ccc2cc3c(cc21)CCN3C(=O)Nc1cccnc1 [SB206553] | – | cell surface expression in Ser-receptors versus Cys-receptors [1]: greater cell surface expression; resensitization in Ser-receptors versus Cys-receptors [1]: more rapid resensitization |
| CN(C)CCCN1c2ccccc2Sc2ccc(Cl)cc21 [chlorpromazine] | neutral antagonists | – |
| O=C1NCCN1CCN1CCC(c2cn(-c3ccc(F)cc3)c3ccc(Cl)cc23)CC1 [sertindole] | potent inverse agonists | functional activity at HTR2A (HTR2A): potent inverse agonists |
| Cc1nc2n(c(=O)c1CCN1CCC(c3noc4cc(F)ccc34)CC1)CCCC2 [risperidone] | potent inverse agonists | – |

Now from value to molecule, other results behind:

| functional activity at HTR2C (HTR2C) | SMILES | further results |
| --- | --- | --- |
| neutral antagonists | O=C(CCCN1CCC2(CC1)C(=O)NCN2c1ccccc1)c1ccc(F)cc1 [spiperone] | – |
| neutral antagonists | CSc1ccc2c(c1)N(CCC1CCCCN1C)c1ccccc1S2 (stereo not drawn) [thioridazine] | – |
| neutral antagonists | CN1CCN(CC/C=C2/c3ccccc3Sc3ccc(S(=O)(=O)N(C)C)cc32)CC1 [thiothixene] | – |
